Measured values published in patent US20150150893A1, “ANDROGRAPHOLIDE ANALOGS AND THEIR USE FOR MEDICATION” (LIAONING LIFENG SCIENTIFIC & TECHNOLOGY DEVELOPMENT COMPANY …, priority 2012, published 2015).
Like-named read-outs stand apart in the source and are kept apart here.

How the values were obtained:
Assay type in all cases: cell-based
[1] = test system: Japanese encepahalitis virus; details: read-out: In-Vitro Antiviral Screening Result (EC50) C
Rift Valley fever virus = assay: microbe, parasite or virus in culture
SARS coronavirus = assay: microbe, parasite or virus in culture; details: Severe acute respiratory syndrome coronavirus
[2] = test system: Venezuelan equine encephalitis virus; assay: microbe, parasite or virus in culture; details: read-out: In-Vitro Antiviral Screening Result (EC50) G
Influenza A virus H1N1 = assay: microbe, parasite or virus in culture; details: H1N1, read-out: In-Vitro Antiviral Screening Result (EC50) H
many virus = assay: Antivirus studies in vitro, summary over the virus panel; details: read-out: EC50 against many virus
Experimental: compounds were diluted to 20 mg/mL in DMSO then prepared in for log 10 dilutions of 100 μg/mL down to 0.1 μg/mL) in MEM solution with 50 μg/mL gentamicin and 2% FBS. Each dilution was added to 5 wells of a 96-well plate with 80-100% confluent cells. Three wells of each dilution were infected with virus, and two wells remained uninfected as toxicity controls. The multiplicity of infection (MOI) was as low as possible to achieve CPE within 3-5 days of incubation. A known active compound was tested in parallel as a control. After untreated virus control wells reached maximum cytopathic effect (CPE), each well was scored microscopically. Plates were then stained with neutral red dye for approximately 2 hours, then supernatant dye was removed from the wells and the incorporated dye was extracted in 50:50 Sorensen citrate buffer/ethanol, then the optical density was read on a spectrophotometer.

[3] = read-out: In-Vitro Antiviral Screening Result (EC50) E
[4] = read-out: In-Vitro Antiviral Screening Result (EC50) F

Compound	EC50 [1] [µg/mL]	EC50 (Rift Valley fever virus; [3]) [µg/mL]	EC50 (SARS coronavirus; [4]) [µg/mL]	EC50 [2] [µg/mL]	EC50 (Influenza A virus H1N1) [µg/mL]	EC50 (many virus) [µg/mL]	EC50 (Rift Valley fever virus; read-out: EC50 against virus E) [µg/mL]	EC50 (SARS coronavirus; read-out: EC50 against virus F) [µg/mL]
CC(=O)OCC1(C)C(OC(C)=O)CCC2(C)C(/C=C/C3=CCOC3=O)C3C(=Nc4cncn43)CC12 (stereo not shown) [Example 95]	> 100	> 100	< 50	< 100	< 50	< 50		
COc1cc(/C=C2C=C(/C=C/C3C4(CCC5[C@]3(C)CC[C@@H](O)[C@@]5(C)CO)CO4)C(=O)O\2)cc([N+](=O)[O-])c1O (stereo partly shown) [Example 41, 11,12-dedihydro-14-deoxy-(E)-15-(4-hydroxy-3-methoxy-5-nitrobenzylidene)-8,17-epoxyandrographolide]	> 100	< 50	< 100	> 100	< 100	< 50		
C=C1CCC2[C@](C)(CC[C@@H](O)[C@@]2(C)CO)C1/C=C/C1=CC(=C\c2cnc(N3CCCC3CO)nc2)/OC1=O (stereo partly shown) [Example 65, 11,12-dedihydro-14-deoxy-(E)-15-((2-(2-(hydroxymethyl)pyrrolidin-1-yl)pyrimidin-5-yl)methylene)andrographolide]	> 100	< 50	< 50	< 100	> 100	< 50		
C[C@]12CC[C@@H](O)[C@@](C)(CO)C1CCC1(CO1)C2/C=C/C1=CC(=C\c2cnc(N)[nH]c2=O)/OC1=O (stereo partly shown) [Example 38, 11,12-dedihydro-14-deoxy-15-(2-amino-5-oxygen-3H-pyrimidine-5-ylmethylene)-8,17-epoxyandrographolide]	< 100	> 100	< 50	< 100	< 100	< 50		
C=C1C(N2CCOCC2)CC2[C@](C)(CC[C@@H](O)[C@@]2(C)CO)C1/C=C/C1=CC(=C\c2ccc(N(C)C)cc2)/OC1=O (stereo partly shown) [Example 124]	< 50	< 50	< 50	< 50	< 100	< 50		
CN(C)c1ccc(/C=C2C=C(/C=C/C3C4(CCC5[C@]3(C)CC[C@@H](O)[C@@]5(C)CO)CO4)C(=O)O\2)c(O)c1 (stereo partly shown) [Example 78]	< 100	< 100	< 50	< 100	> 100	< 50		
CC(NC1CC2[C@](C)(CC[C@@H](O)[C@@]2(C)CO)C(/C=C/C2=CC(=C\c3cnc(N4CCN(C)CC4)nc3)/OC2=O)C12CO2)C(=O)NC1=NCC=N1 (stereo partly shown) [Example 23, 7-((2-((4H-imidazol-2-yl)amino)-1-oxopropan-2-yl)amino)-11,12-dedihydro-14-deoxy-(E)-15-((2-(4-methylpiperazin-1-yl)pyrimidin-5-yl)methylene)-8,17-epoxyandrographolide]	< 50	< 50	< 50	< 50	> 100	< 50		
C=C1CCC2C(C)(CO)C(O)CCC2(C)C1/C=C/C1=CC(=C\c2ccc(OC3OC(CO)C(O)C(O)C3O)cc2)/OC1=O (stereo not shown) [Example 40, 11,12-dedihydro-14-deoxy-15-(4-((3,4,5-trihydroxy-6-(hydroxymethyl)tetrahydro-2H-pyran-2-yl)oxy)benzylidene)andrographolide]	< 100	> 100	< 50	> 100	> 100	< 50		
C=C1CCC2[C@](C)(CC[C@@H](O)[C@@]2(C)CO)C1/C=C/C1=CC(=C\c2cn(C)c3nc(N)ncc23)/OC1=O (stereo partly shown) [Example 46, 11,12-dedihydro-14-deoxy-(E)-15-((2-amino-7-methyl-7H-pyrrolo[2,3-d]pyrimidin-5-yl)methylene)andrographolide]	< 100	< 50	< 50	< 100	< 100	< 50		
C=C1CCC2C(C)(CO)C(O)CCC2(C)C1CC(Nc1cccc(Cl)c1)C1=CCOC1=O (stereo not shown) [Example 53, 12-((3-chlorophenyl)amino)-14-deoxyandrographolide]	< 50	< 10	< 50	< 50	< 50		< 1	< 1
CN(C)c1ccc(/C=C2C=C(/C=C/C3C4(CO4)C(N4CCOCC4)CC4[C@]3(C)CC[C@@H](O)[C@@]4(C)CO)C(=O)O\2)cc1 (stereo partly shown) [Example 76, 7-(4-morpholino)-11,12-dedihydro-14-deoxy-15-(4-(dimethylamino)benzylidene)andrographolide]	> 100	< 100	< 50	> 100	< 100	< 50		
C=C1CCC2C(C)(CO)C(O)CCC2(C)C1/C=C/C1=CC(=C\c2ccc(Cl)cc2Cl)/OC1=O (stereo not shown) [Example 35, 11,12-dedihydro-14-deoxy-(E)-15-(2,4-dichlorobenzylidene)andrographolide]	< 50	> 100	< 50	< 50	< 50	< 50		
C=C1CCC2[C@](C)(CC[C@@H](O)[C@@]2(C)CO)C1/C=C/C1=CC(=C\c2ccc(N(C)C)cc2)/OC1=O (stereo partly shown) [Example 37, 11,12-dedihydro-14-deoxy-15-(4-(dimethylamino)benzylidene)andrographolide]	< 50	< 50	< 50	< 50	< 50		< 1	< 1
C[C@]12CC[C@@H](O)[C@@](C)(CO)C1CCC1(CO1)C2/C=C/C1=CC(=C\c2ccc(-n3ccnc3)cc2)/OC1=O (stereo partly shown) [Example 77, 11,12-dedihydro-14-deoxy-(E)-15-(4-(1H-imidazol-1-yl)benzylidene)-8,17-epoxyandrographolide]	< 100	< 50	< 100	> 100	< 100	< 50		
CCN(CC)c1ccc(/C=C2C=C(/C=C/C3C4(CCC5[C@]3(C)CC[C@@H](O)[C@@]5(C)CO)CO4)C(=O)O\2)c(O)c1 (stereo partly shown) [Example 66]	< 50	< 100	< 100	< 50	< 100	< 50		
C[C@]12CC[C@@H](O)[C@@](C)(CO)C1CCC1(CO1)C2/C=C/C1=CC(=C\c2cnc(N3CCCC3CO)nc2)/OC1=O (stereo partly shown) [Example 69, 11,12-dedihydro-14-deoxy-(E)-15-((2-(2-(hydroxymethyl)pyrrolidin-1-yl)pyrimidin-5-yl)methylene)-8,17-epoxyandrographolide]	> 100	< 50	< 50	> 100	< 100	< 50		
Cn1cc(/C=C2C=C(/C=C/C3C4(CCC5[C@]3(C)CC[C@@H](O)[C@@]5(C)CO)CO4)C(=O)O\2)c2cnc(N)nc21 (stereo partly shown) [Example 59, 11,12-dedihydro-14-deoxy-(E)-15-((2-amino-7-methyl-7H-pyrrolo[2,3-d]pyrimidin-5-yl)methylene)-8,17-epoxyandrographolide]	> 100	< 50	< 50	> 100	< 100	< 50		
C=C1CCC2[C@](C)(CC[C@@H](O)[C@@]2(C)CO)C1/C=C/C1=CC(=C\c2cnc(N)[nH]c2=O)/OC1=O (stereo partly shown) [Example 50, 11,12-dedihydro-14-deoxy-15-(2-amino-4-oxo-3H-pyrimidine-5-ylmethylene)andrographolide]	< 50	< 100	< 100	< 50	< 50	< 50		
CN1CCN(c2ccc(/C=C3C=C(/C=C/C4C5(CCC6[C@]4(C)CC[C@@H](O)[C@@]6(C)CO)CO5)C(=O)O\3)cc2)CC1 (stereo partly shown) [Example 71, 11,12-dedihydro-14-deoxy-(E)-15-(4-(4-methylpiperazin-1-yl)benzylidene)-8,17-epoxyandrographolide]	< 50	> 100	< 100	< 50	< 100	< 50		
CN1C(=O)CN2C=C(/C=C3C=C(/C=C/C4C5(CCC6[C@]4(C)CC[C@@H](O)[C@@]6(C)CO)CO5)C(=O)O\3)C=CC21 (stereo partly shown) [Example 68, 11,12-dedihydro-14-deoxy-(E)-15-((1-methyl-2-oxo-1,2,3,8a-tetrahydroimidazo[1,2-a]pyridin-6-yl)methylene)-8,17-epoxyandrographolide]	< 50	> 100	< 50	< 50	> 100	< 50		
C=C1CCC2C(C)(CO)C(O)CCC2(C)C1CC(NC12CN3CN(CN(C3)C1)C2)C1=CCOC1=O (stereo not shown) [Example 57, 12-((1s,3s,5s)-1,3,5-triazaadamantan-7-ylamino)-14-deoxyandrographolide]	< 50	< 50	< 50	< 50	< 50		< 1	< 1
C=C1C(N2CCOCC2)CC2[C@](C)(CC[C@@H](O)[C@@]2(C)CO)C1/C=C/C1=CCOC1=O (stereo partly shown) [Example 83]	< 50	< 50	< 50	< 50	< 50		< 1	< 1
